Reference: publication PMC6993587, “Detection of EXP1-Specific CD4+ T Cell Responses Directed Against a Broad Range of Epitopes Including Two Promiscuous MHC Class II Binders During Acute Plasmodium falciparum Malaria” (Frontiers in Immunology, 2020)
Ends that are not written are not given here.

How the values were obtained:
Test in all cases: In vitro HLA binding assay with purified HLA-DR molecules
HLA-DR DRB1*09:01 = HLA-DR DRB1*09:01 (Homo sapiens, UniProt P01903+P01911, A100R/A103E/D57H/D86V/F55Y/F60I/F76Y/I96F/K127E/L162R/M171V/P40D/Q125H/Q99R/R33Q/R42F/S133A/S66N/T210M/V115G/W38K/Y107V/Y59G/Y89S)
HLA-DR DRB1*01:01 = HLA-DR DRB1*01:01 (Homo sapiens, UniProt P01903+P01911, A100R/D57E/F55L/F60I/F76Y/I96L/L162R/M171V/P40L/Q125E/R42F/V115G/Y59C); conditions: purified HLA-DR molecule; high affinity binding = IC50 <1,000 nM
Method: (§1) In vitro binding assays with 14 of the peptides that elicited a response were performed using purified HLA-DR molecules, as previously described (Table 3) ([37]). MHC class II in silico binding predictions were defined, using the IEDB analysis resource ([38]–[40]), combining predictions from the ANN ([41], [42]) and SMM ([43]) algorithms (Supplementary Table 2A).
(§2) To test this hypothesis, we measured the in vitro capacity of the most frequently recognized EXP1 peptides to bind to a panel of 17 of the most prevalent human HLA-DR molecules, since the majority of HLA class II restricted CD4+ T cell responses are presented by these molecules ([49], [50]). Peptides with an IC50 of 1,000 nM or lower, a threshold previously found associated with the vast majority of HLA class II-restricted T cell epitopes, were considered binders to the respective DR molecule ([51]–[53]). […] These include EXP1-P14 which bound to five, EXP1-P15 to 13, EXP1-P16 to 10 and EXP1-P17 to nine different HLA molecules (Table 3).

HLA-DR DRB1*04:01 = HLA-DR DRB1*04:01 (Homo sapiens, UniProt P01903+P01911, A100K/A169T/F76Y/I96L/K127E/L162R/M171V/N62H/P40V/Q125Y/R42H/S133A/S149N/S66Y/V115G/V209L/W38E); conditions: purified HLA-DR molecule; high affinity binding = IC50 <1,000 nM
Method: as §1, §2

HLA-DR DRB1*04:04 = HLA-DR DRB1*04:04 (Homo sapiens, UniProt P01903+P01911, A100R/A169T/F76Y/I96L/K127E/L162R/M171V/N62H/P40V/Q125Y/R42H/S133A/S149N/S66Y/V209L/W38E); conditions: purified HLA-DR molecule; high affinity binding = IC50 <1,000 nM
Method: as §1, §2

HLA-DR DRB1*04:05 = HLA-DR DRB1*04:05 (Homo sapiens, UniProt P01903+P01911, A100R/A169T/D86S/F76Y/I96L/K127E/L162R/M171V/N62H/P40V/Q125Y/R42H/S133A/S149N/S66Y/V115G/V209L/W38E); conditions: purified HLA-DR molecule; high affinity binding = IC50 <1,000 nM
Method: as §1, §2

HLA-DR DRB1*07:01 = HLA-DR DRB1*07:01 (Homo sapiens, UniProt P01903+P01911, A100R/A102G/A103Q/D57E/D86V/E43K/F76Y/K127E/L162R/M171V/P40G/Q125H/Q99D/R33Q/R42Y/R54Q/S133A/S66F/T210M/V115G/Y107V/Y59L/Y89S); conditions: purified HLA-DR molecule; high affinity binding = IC50 <1,000 nM
Method: as §1, §2

HLA-DR DRB1*10:01 = HLA-DR DRB1*10:01 (Homo sapiens, UniProt P01903+P01911, A100R/A169T/D57E/F55L/F60V/F69Y/F76Y/I96L/L162R/M171V/P40V/Q260P/Q39E/Q99R/R195Q/R42F/S149N/S66Y/T210M/V115G/V67A/W38E/Y59R/Y61H); conditions: purified HLA-DR molecule; high affinity binding = IC50 <1,000 nM
Method: as §1, §2

HLA-DR DRB1*13:01 = HLA-DR DRB1*13:01 (Homo sapiens, UniProt P01903+P01911, A100E/A169T/K41T/L162R/M171V/P40S/Q125H/Q178H/Q39Y/Q99D/R42S/S66N/T262R/W38E/Y61H); conditions: purified HLA-DR molecule; high affinity binding = IC50 <1,000 nM
Method: as §1, §2

HLA-DR DRB1*15:01 = HLA-DR DRB1*15:01 (Homo sapiens, UniProt P01903+P01911); conditions: purified HLA-DR molecule; high affinity binding = IC50 <1,000 nM
Method: as §1, §2

HLA-DR DRB4*01:01 = HLA-DR DRB4*01:01 (Homo sapiens, UniProt P01903+P13762, G164S); conditions: purified HLA-DR molecule; high affinity binding = IC50 <1,000 nM
Method: as §1, §2

HLA-DR DRB5*01:01 = HLA-DR DRB5*01:01 (Homo sapiens, UniProt P01903+Q30154); conditions: purified HLA-DR molecule; high affinity binding = IC50 <1,000 nM
Method: as §1, §2

HLA-DR DRB3*01:01 = HLA-DR DRB3*01:01 (Homo sapiens, UniProt P01903+P79483); conditions: purified HLA-DR molecule; high affinity binding = IC50 <1,000 nM
Method: as §1, §2

HLA-DR DRB3*02:02 = HLA-DR DRB3*02:02 (Homo sapiens, UniProt P01903+P79483, A212P/D57E/F66Y/L67A/R103Q/R218S/R40L/S89Y/T80R/V86D/Y55F/Y59H); conditions: purified HLA-DR molecule; high affinity binding = IC50 <1,000 nM
Sequence of HLA-DR DRB3*02:02 (P01903 26-254 limits assumed): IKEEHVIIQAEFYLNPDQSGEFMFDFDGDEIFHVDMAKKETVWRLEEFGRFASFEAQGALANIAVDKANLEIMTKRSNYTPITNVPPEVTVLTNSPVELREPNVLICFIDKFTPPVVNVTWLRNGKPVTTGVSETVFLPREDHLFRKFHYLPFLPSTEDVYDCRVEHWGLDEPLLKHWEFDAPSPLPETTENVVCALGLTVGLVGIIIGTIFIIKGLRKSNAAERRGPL
Sequence of HLA-DR DRB3*02:02 (P79483 30-266 R40L/Y55F/D57E/Y59H/F66Y/L67A/T80R/V86D/S89Y/R103Q/A212P/R218S limits assumed): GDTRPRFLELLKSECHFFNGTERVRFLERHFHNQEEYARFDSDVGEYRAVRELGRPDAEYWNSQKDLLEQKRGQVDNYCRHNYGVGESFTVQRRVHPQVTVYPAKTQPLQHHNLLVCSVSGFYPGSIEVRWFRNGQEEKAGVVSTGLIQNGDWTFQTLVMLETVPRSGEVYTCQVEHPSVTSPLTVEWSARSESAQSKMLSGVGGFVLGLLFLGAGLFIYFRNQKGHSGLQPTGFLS
Method: as §1, §2

HLA-DR DRB1*08:02 = HLA-DR DRB1*08:02 (Homo sapiens, UniProt P01903+P01911, A100R/A103L/A169T/F76Y/H45Y/I96F/K41T/L162R/M171V/P40S/Q125H/Q178H/Q39Y/Q99D/R218S/R42G/S66Y/V115G/W38E); conditions: purified HLA-DR molecule; high affinity binding = IC50 <1,000 nM
Method: as §1, §2

HLA-DR DRB1*11:01 = HLA-DR DRB1*11:01 (Homo sapiens, UniProt P01903+P01911, A100R/A169T/A87E/I96F/K41T/L162R/M171V/P40S/Q125H/Q178H/Q39Y/Q99D/R42S/S66Y/T262R/V115G/W38E); conditions: purified HLA-DR molecule; high affinity binding = IC50 <1,000 nM
Sequence of HLA-DR DRB1*11:01 (P01903 26-254 limits assumed, other chains not shown): as the sequence (P01903 26-254 limits assumed) above
Method: as §1, §2

HLA-DR DRB1*13:02 = HLA-DR DRB1*13:02 (Homo sapiens, UniProt P01903+P01911, A100E/A169T/K41T/L162R/M171V/P40S/Q125H/Q178H/Q39Y/Q99D/R42S/S66N/T262R/V115G/W38E/Y61H); conditions: purified HLA-DR molecule; high affinity binding = IC50 <1,000 nM
Sequence of HLA-DR DRB1*13:02 (P01903 26-254 limits assumed, other chains not shown): as the sequence (P01903 26-254 limits assumed) above
Method: as §1, §2

HLA-DR DRB1*03:01 = HLA-DR DRB1*03:01 (Homo sapiens, UniProt P01903+P01911, A100K/A102G/A103R/A169T/F55Y/I96L/K41T/L162R/M171V/P40S/Q125H/Q178H/Q39Y/R42S/S66N/T106N/T262R/W38E/Y61H); conditions: purified HLA-DR molecule; high affinity binding = IC50 <1,000 nM
Sequence of HLA-DR DRB1*03:01 (P01903 26-254, other chains not shown): as the sequence (P01903 26-254 limits assumed) above
Method: as §1, §2

Molecule	IC50 (HLA-DR DRB1*09:01) [µM]	IC50 (HLA-DR DRB1*01:01) [µM]	IC50 (HLA-DR DRB1*04:01) [µM]	IC50 (HLA-DR DRB1*04:04) [µM]	IC50 (HLA-DR DRB1*04:05) [µM]	IC50 (HLA-DR DRB1*07:01) [µM]	IC50 (HLA-DR DRB1*10:01) [µM]	IC50 (HLA-DR DRB1*13:01) [µM]	IC50 (HLA-DR DRB1*15:01) [µM]	IC50 (HLA-DR DRB4*01:01) [µM]	IC50 (HLA-DR DRB5*01:01) [µM]	IC50 (HLA-DR DRB3*01:01) [µM]	IC50 (HLA-DR DRB3*02:02) [µM]	IC50 (HLA-DR DRB1*08:02) [µM]	IC50 (HLA-DR DRB1*11:01) [µM]	IC50 (HLA-DR DRB1*13:02) [µM]	IC50 (HLA-DR DRB1*03:01) [µM]
CC(C)C[C@H](NC(=O)CNC(=O)[C@@H](NC(=O)CNC(=O)CNC(=O)[C@H](CC(C)C)NC(=O)[C@H](CC(C)C)NC(=O)[C@@H](NC(=O)[C@@H](N)[C@@H](C)O)C(C)C)C(C)C)C(=O)N[C@H](C(=O)N[C@@H](CC(C)C)C(=O)N[C@@H](Cc1ccc(O)cc1)C(=O)N[C@@H](CC(N)=O)C(=O)N[C@H](C(=O)N[C@@H](CCC(=O)O)C(=O)O)[C@@H](C)O)C(C)C [EXP1-P19]	4.45	0.0086	2.44	20.1	4.95	3.95	34	7.44	0.219	8.28	1.18	–	–	–	–	–	–
VEVNKRKSKYKLATS [EXP1-P14]	0.077	2.35	0.058	–	0.083	8.3	0.295	5.74	6.1	–	0.089	13.9	5.84	–	–	–	–
LGVVSTVLLGGVGLV [EXP1-P18]	0.491	0.019	2.05	0.806	5.02	0.433	1.89	8.56	0.3	0.194	2.47	13.5	–	1.81	6.63	3.23	–
SVFFLALFFIIFNKE [EXP1-P02]	0.648	11.7	4.2	2.61	4.25	7.99	3.99	6.46	1.55	17.4	6.95	10.6	–	2.97	–	–	12.3
VLAGLLGVVSTVLLGGV [EXP1-P17]	0.012	0.023	1.26	0.047	0.824	0.0046	0.418	14.2	0.005	2.39	0.238	28.5	14.9	0.049	13.7	33.4	–
CC[C@H](C)[C@H](NC(=O)[C@@H](NC(=O)[C@H](Cc1ccccc1)NC(=O)[C@H](Cc1ccccc1)NC(=O)[C@H](CC(C)C)NC(=O)[C@H](C)NC(=O)[C@H](CC(C)C)NC(=O)[C@H](Cc1ccccc1)NC(=O)[C@H](Cc1ccccc1)NC(=O)[C@@H](NC(=O)[C@H](CO)NC(=O)[C@H](CC(C)C)NC(=O)[C@@H](NC(=O)[C@H](CCCCN)NC(=O)[C@@H](N)CCSC)[C@@H](C)CC)C(C)C)[C@@H](C)CC)C(=O)O [EXP1-P01]	3.59	21.4	5.05	9.13	3.52	9.19	4.94	3.12	3.36	25.2	10.9	–	–	5.45	39.6	–	–
GVGLVLYNTEKGRHP [EXP1-P20]	–	8.94	0.026	0.0091	2.95	–	7.97	0.122	0.024	0.081	0.539	–	4.99	0.0093	0.183	17.1	4.49
